From the NIST ThermoML archive (doi:10.1021/je200683f)

Conditions: Liquid, Transpiration method

NC=O [formamide]
Conditions | vapor or sublimation pressure [kPa]
303.4 K | 0.0143
308.2 K | 0.0201
313.2 K | 0.0305
318.2 K | 0.0455
323.2 K | 0.0636
328.2 K | 0.0915
333.2 K | 0.1243
338.2 K | 0.1674
343.2 K | 0.2297
348.2 K | 0.3121
353.3 K | 0.4543
358.2 K | 0.5468
363.2 K | 0.7803
368.1 K | 0.9855
373.2 K | 1.271
376 K | 1.476
